In US12419305B2, “Antimicrobial compositions” (Firmenich SA, priority 2018, dated 2025):
Like-named read-outs stand apart in the source and are kept apart here.

What was measured:
S. haemolyticus 114126 = assay: BCT test (bacterial contact time), 120 s, log reduction / effect fraction; CI by Compusyn; assay type: cell-based; conditions: Staphylococcus haemolyticus, 114126, 2 min, contact 120 s, 25% EtOH
Method: S. haemolyticus: Suspensions of the S. haemolyticus 114126 strain, isolated from skin, were prepared as follows: Stock cultures (stored at −80° C.) were thawed and sub-cultured onto TSA-TW80 agar plate media, and incubated at 37° C. for 24 h to obtain single colonies. Single colonies of the primary cultures were streaked onto fresh TSA-TW80 plates and incubated at 37° C. for 24 h to prepare secondary cultures. Single colonies of secondary cultures were picked and used to inoculate 50 mL of BHI-TW80 broth. The inoculated broth was incubated at 37° C. at 180 rpm for 18 h. Aliquots (0.5 ml) of the 18 h culture were inoculated into 50 ml of fresh BHI-TW80 broth, and incubated at 37° C. at 180 rpm for approximately 3 hours. When the OD 600 nm value of the broth reached 1-2, cells were harvested by centrifugation at 5000 rpm for 10 min, and then resuspended in fresh BHI-TW80 broth at a concentration of 1-5×10^8 CFU/mL. This suspension was used as the bacterial suspension for the BCT test.
BCT Test: Test compositions at a range of concentrations (either combinations of more than one perfume ingredient, and comparative compositions comprising the single perfume ingredients) were prepared in ethanol. Five replicates of each test composition were added into 96-well microtiter plates (120 μl per well), with row B containing control compositions containing the ethanol solution alone. 120 μl of bacterial cell suspensions at a concentration of approximately 1×10^8 bacteria per mL (as prepared above) were added to each well of the microtiter plate. The bacterial suspensions were incubated with the test solutions for 45, 60, or 120 seconds. Following the incubation of the bacterial suspensions with the test solutions, serial dilutions of the bacterial suspensions were generated (three serial 1:10 dilutions, followed by 17 serial 1:2 dilutions), in multiwell microtiter plates.
Each plate was sealed and incubated at 37° C. under agitation (180 rpm). After incubation, the turbidity of the wells (OD600 nm) was determined using a Tecan microplate reader. Turbid wells were regarded as positive growth, due to the presence of viable cells. The total number of viable cells (log CFU) for each sample was calculated. And the log reduction for each test composition at the final concentration (dose) was calculated against the control sample of the ethanol solution.
Determination of Synergy via the Combination Index (CI): The CI was calculated using Compusyn software (ComboSyn, Inc., as created by Dr. Dorothy Chou in 2005), according to the manufacturer's instructions. The concentration of each test composition (combinations of more than one perfume ingredient, and comparative compositions comprising the single perfume ingredients used to generate the combination) and their corresponding effect fraction was entered, and the corresponding CI calculated.
When the calculated CI values were less than 0.9, the combination of perfume ingredients was regarded as having synergistic effect. When the calculated CI was between 1.0 a 0.9, the combination of perfume ingredients was regarded as having an additive effect. When the calculated CI was greater than 1.0, the combination of perfume ingredients was regarded as having an antagonistic effect.

S. aureus ATCC 6538 = assay: BCT test (bacterial contact time), 60 s, log reduction / effect fraction; CI by Compusyn; assay type: cell-based, Staphylococcus aureus; conditions: Staphylococcus aureus, ATCC6538, 1 min, in 25% EtOH
Outline: (§1)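 Perfume ingredients, alone or combined, in ethanol were mixed 1:1 with ~1×10^8 CFU/mL log-phase bacteria in TSB for the stated contact time. Survivors were estimated by serial dilution and OD600 growth at 37 °C; log reduction versus ethanol control. CI from effect fractions via Compusyn (<0.9 synergy, >1.0 antagonism).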

[1] = system: Salmonella enterica ATCC 10708; assay: as above; assay type: cell-based; conditions: Salmonella enterica, ATCC10708, 1 min, BCT 60 s, in 25% EtOH
Outline: as §1

[2] = system: Pseudomonas aeruginosa ATCC 15442; assay: as above; assay type: cell-based; conditions: Pseudomonas aeruginosa, ATCC15442, 1 min, BCT 60 s, in 25% EtOH
Outline: as §1

E. coli ATCC 10536 = assay: BCT test (bacterial contact time), 45 s, log reduction / effect fraction; CI by Compusyn; assay type: cell-based, Escherichia coli; conditions: Escherichia coli, ATCC10536, 45 s, 45 s, in 20% EtOH
Outline: as §1

C=CCc1ccc(O)c(OC)c1 [Eugenol F, 2-Methoxy-4-(prop-2-en-1-yl)phenol]
log reduction at 0.2 % strength (S. haemolyticus 114126; dose 0.2% w/v): 0.3
log reduction at 0.25 % strength (S. haemolyticus 114126; dose 0.25% w/v, read-out: Log reduction): 2.37
log reduction at 0.3 % strength (S. haemolyticus 114126; dose 0.3% w/v, read-out: Log reduction): 4.9
log reduction at 0.35 % strength (S. haemolyticus 114126; dose 0.35% w/v): 7.6
log reduction at 0.1 % strength (S. aureus ATCC 6538; Dose 0.1 % w/v, BCT 60 s): 0.8
log reduction at 0.125 % strength (S. aureus ATCC 6538; Dose 0.125 % w/v, BCT 60 s): 1.6
log reduction at 0.15 % strength (S. aureus ATCC 6538; Dose 0.15 % w/v, BCT 60 s, read-out: Log reduction): 2.3
log reduction at 0.175 % strength (S. aureus ATCC 6538; Dose 0.175 % w/v, BCT 60 s, read-out: Log reduction): 5.5
log reduction at 0.1 % strength (S. aureus ATCC 6538; dose 0.100 % w/v, 60 s): 0.7
log reduction at 0.125 % strength (S. aureus ATCC 6538; dose 0.125 % w/v, 60 s): 1.5
log reduction at 0.13 % strength (S. aureus ATCC 6538; dose 0.13 % w/v, 60 s): 1.6
log reduction at 0.15 % strength (S. aureus ATCC 6538; dose 0.150 % w/v, 60 s, read-out: Log reduction): 2.2
log reduction at 0.175 % strength (S. aureus ATCC 6538; dose 0.175 % w/v, 60 s, read-out: Log reduction): 4.6
log reduction at 0.2 % strength (S. aureus ATCC 6538; dose 0.200 % w/v, 60 s, read-out: Log reduction): 6.9
log reduction at 0.075 % strength ([1]; Dose 0.075 % w/v): 1
log reduction at 0.1 % strength ([1]; Dose 0.1 % w/v, read-out: Log reduction): 2.4
log reduction at 0.1 % strength ([1]; Dose 0.10 % w/v, read-out: Log reduction): 2
log reduction at 0.125 % strength ([1]; Dose 0.125 % w/v): 4.4
log reduction at 0.15 % strength ([1]; Dose 0.15 % w/v): 7.8
log reduction at 0.12 % strength ([2]; Dose 0.12 % w/v): 2.4
log reduction at 0.14 % strength ([2]; Dose 0.14 % w/v): 3.8
log reduction at 0.15 % strength ([2]; Dose 0.15 % w/v): 7.5
log reduction at 0.075 % strength (E. coli ATCC 10536; dose 0.075 % w/v): 0
log reduction at 0.09 % strength (E. coli ATCC 10536; dose 0.090 % w/v): 0.3
log reduction at 0.1 % strength (E. coli ATCC 10536; dose 0.100 % w/v, read-out: Log reduction): 0.9
log reduction at 0.125 % strength (E. coli ATCC 10536; dose 0.125 % w/v): 2.5
log reduction at 0.15 % strength (E. coli ATCC 10536; dose 0.150 % w/v): 7.4

CC(C)=CCC/C(C)=C/CO [Geraniol Pur]
log reduction at 0.05 % strength (S. haemolyticus 114126; dose 0.05% w/v): -0.2
log reduction at 0.1 % strength (S. haemolyticus 114126; dose 0.1% w/v): 2.7
log reduction at 0.125 % strength (S. haemolyticus 114126; dose 0.125% w/v): 5.3
log reduction at 0.15 % strength (S. haemolyticus 114126; dose 0.15% w/v): 7.1
log reduction at 0.05 % strength (S. aureus ATCC 6538; dose 0.050 % w/v, 60 s): 0.2
log reduction at 0.06 % strength (S. aureus ATCC 6538; dose 0.060 % w/v, 60 s): 0.4
log reduction at 0.07 % strength (S. aureus ATCC 6538; dose 0.070 % w/v, 60 s): 1.5
log reduction at 0.08 % strength (S. aureus ATCC 6538; dose 0.080 % w/v, 60 s): 4
log reduction at 0.1 % strength (S. aureus ATCC 6538; dose 0.100 % w/v, 60 s): 7.3
log reduction at 0.025 % strength ([1]; Dose 0.025 % w/v): 0.2
log reduction at 0.03 % strength ([1]; Dose 0.03 % w/v): 0.2
log reduction at 0.04 % strength ([1]; Dose 0.04 % w/v): 2.4
log reduction at 0.045 % strength ([1]; Dose 0.045 % w/v): 3.6
log reduction at 0.05 % strength ([1]; Dose 0.05 % w/v, read-out: Log reduction): 4.9
log reduction at 0.03 % strength ([2]; Dose 0.03 % w/v): 0.2
log reduction at 0.04 % strength ([2]; Dose 0.040 % w/v): 1.4
log reduction at 0.05 % strength ([2]; Dose 0.05 % w/v): 3.9
log reduction at 0.06 % strength ([2]; Dose 0.06 % w/v): 5.9
log reduction at 0.08 % strength ([2]; Dose 0.08 % w/v): 7.5
log reduction at 0.04 % strength (E. coli ATCC 10536; dose 0.040 % w/v): 0.4
log reduction at 0.05 % strength (E. coli ATCC 10536; dose 0.050 % w/v): 1.9
log reduction at 0.06 % strength (E. coli ATCC 10536; dose 0.060 % w/v): 6.4
log reduction at 0.07 % strength (E. coli ATCC 10536; dose 0.070 % w/v): 7.4
log reduction at 0.08 % strength (E. coli ATCC 10536; dose 0.080 % w/v): 7.4
